Common to all, as to type: in vivo
Assay [1] deals with Blattella germanica. Description: Knockdown spray test on Blattella germanica, 2.0% w/v oil formulation (Test Example 1). To be noted: topical, 0.25 h, active ingredient 2.0% w/v, 1.5 ml sprayed, within 15 minutes, read-out: knockdown rate of the test insects within 15 minutes. On the procedure: Ten Blattella germanica (5 males and 5 females) were released in a test container (8.75 cm in diameter, 7.5 cm in height, and the bottom made of 16 mesh metallic wire) with the inner wall on which butter was applied, and the container was placed on the bottom of a test chamber (bottom: 46 cm×46 cm, height: 70 cm). From a height of 60 cm above the upper surface of the container, 1.5 ml of the test drug solution was sprayed using a spray gun (a spraying pressure of 0.42 kg/cm^2). Thirty seconds after spraying, the container was taken out from the test chamber, and after 2 minutes, 5 minutes and 15 minutes, the number of knocked-down insects was counted to obtain a knockdown rate. The knockdown rate was calculated by the following equation.
(§1) Knockdown Rate (%)=(Number of Knocked-down Insects/Number of Tested Insects)×100

Assay [2] has as its system Culex pipiens pallens. Put plainly: Knockdown spray test on adult Culex pipiens pallens (Test Example 4). To be noted: topical, 0.25 h, active ingredient 0.1% w/v, 0.5 ml sprayed, within 15 minutes, read-out: knockdown rate of the test insects within 15 minutes. The method in brief: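 Knockdown counts were taken 2, 5 and 15 min after spraying and expressed as percent of the 10 adults tested. For the spray, 0.5 ml of solution was applied by spray gun (0.4 kg/cm^2) from 30 cm above a gauze-covered cup in a test chamber; the cup was taken out right after spraying.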

Assay [3] concerns Musca domestica. Description: Knockdown spray test on adult Musca domestica (Test Example 3). The settings on record: topical, 0.25 h, active ingredient 2.0% w/v, 0.5 ml sprayed, within 15 minutes, read-out: knockdown rate of the test insects within 15 minutes. On the procedure:
Ten adult Musca domestica (five males and five females) were released in a polyethylene cup (bottom diameter: 10.6 cm), and the cup was covered with a 16-mesh nylon gauze. The polyethylene cup was placed on the bottom of a test chamber (bottom: 46 cm×46 cm, height: 70 cm). From a height of 30 cm above the upper surface of the polyethylene cup, 0.5 ml of the test drug solution was sprayed using a spray gun (a spraying pressure of 0.9 kg/cm^2). Immediately after spraying, the cup was taken out from the test chamber, and after 2 minutes, 5 minutes and 15 minutes, the number of knocked-down insects was counted to obtain a knockdown rate. The knockdown rate was calculated by the following equation.
as §1

For assay [4], the system named is Plutella xylostella. Description: Foliar spray test on Plutella xylostella on cabbage (Test Example 10). The settings on record: 120 h, third instar larvae of Plutella xylostella on cabbage, 500 ppm spray 20 ml/cup, after five days, read-out: controlling value. On the procedure: On the other hand, cabbage was planted in a polyethylene cup, and grown until the third-fourth true leaf was spread. The test spray solution was sprayed to the cabbage at a ratio of 20 ml/cup. After the drug solution sprayed on the cabbage was dried, 10 third instar larvae of Plutella xylostella were allowed to parasitize the cabbage. After five days, the number of Plutella xylostella was investigated, and the controlling value was calculated according to the following standard. Controlling value (%)={1−(Cb×Tai)/(Cai×Tb)}×100 In the equation, the symbols represent as follows. Cb: the number of insects in a non-treated section before treatment Cai: the number of insects in a non-treated section on observation Tb: the number of insects in a treated section before treatment Tai: the number of insects in a treated section on observation

Assay [5] relates to Musca domestica. Description: Filter paper/sucrose bait death rate test on Musca domestica (Test Example 5). To be noted: female imagoes of Musca domestica, 0.7 ml on filter paper, after 24 hours. The method in brief:
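Ten female imagoes were confined in a sealed cup over a filter paper treated with 0.7 ml of test solution and 30 mg sucrose bait. Mortality was scored at 24 h and expressed as percent of tested insects killed.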

Assay [6] concerns Blattella germanica. Put plainly: Knockdown spray test on Blattella germanica, 0.1% w/v oil formulation (Test Example 2). The settings on record: topical, 0.25 h, active ingredient 0.1% w/v, 1.5 ml sprayed, within 15 minutes, read-out: knockdown rate of the test insects within 15 minutes. The method in brief:
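Ten German cockroaches (5 males, 5 females) in a mesh-bottomed, butter-walled container were sprayed with 1.5 ml test solution from 60 cm at 0.42 kg/cm^2 inside a chamber.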

Structures are written as SMILES.

In the case of `CCCCc1cc(C(=O)NCC2CCOC2)no1` (stereo not drawn) [(11), N-(tetrahydrofuran-3-ylmethyl)-5-butylisoxazole-3-carboxamide], the pest or weed control at 2 % strength in assay [1] and in assay [3] was no less than 80% in each case. In assay [2], the pest or weed control at 0.1 % strength is no less than 80%.

Take `O=C(NCC1CCCCO1)c1cc(COCc2ccccc2)on1` (stereo not drawn) [(14), N-(tetrahydropyran-2-ylmethyl)-5-benzyloxymethylisoxazole-3-carboxamide]: the pest or weed control at 2 % strength in assay [1] and in assay [3] was no less than 80% each time. Further, the pest or weed control at 0.1 % strength in assay [2] is no less than 80%.

Consider `O=C(NCC1CCOC1)c1cc(COc2ccccc2)on1` (stereo not drawn) [(23), N-(tetrahydrofuran-3-ylmethyl)-5-phenyloxymethylisoxazole-3-carboxamide], for which the pest or weed control at 500 ppm in assay [4] was no less than 90%. Also, in assay [1], the pest or weed control at 2 % strength was no less than 80%. Moreover, in assay [2], the pest or weed control at 0.1 % strength is no less than 80%.

For `O=C(NCC1CCOC1)c1cc(COCc2cccc3ccccc23)on1` (stereo not drawn) [(27), N-(tetrahydrofuran-3-ylmethyl)-5-(1-naphthylmethoxymethyl)isoxazole-3-carboxamide], the pest or weed control at 2 % strength in assay [1] and in assay [3] was no less than 80% in each case. In addition, the pest or weed control at 0.1 % strength in assay [2] was no less than 80%.

`O=C(NCC1CCOC1)c1cc(COCc2cccc(C(F)(F)F)c2)on1` (stereo not drawn) [(64), N-(tetrahydrofuran-3-ylmethyl)-5-(3-trifluoromethylbenzyloxymethyl)isoxazole-3-carboxamide]: the pest or weed control at 2 % strength in assay [1] and in assay [3] was no less than 80% throughout. Further, the pest or weed control at 0.1 % strength in assay [2] was no less than 80%.

On to `COc1ccc(COCc2cc(C(=O)NCC3CCOCC3)no2)cc1` [(100), N-(tetrahydropyran-4-ylmethyl)-5-(4-methoxybenzyloxymethyl) isoxazole-3-carboxamide], for which the pest or weed control at 500 ppm in assay [5] and in assay [4] was no less than 90% throughout. The pest or weed control at 0.1 % strength in assay [6] and in assay [2] was no less than 80% in each case.

`CSc1ccc(COCc2cc(C(=O)NCC3CCOC3)no2)cc1` (stereo not drawn) [(103), N-(tetrahydrofuran-3-ylmethyl)-5-(4-methylthiobenzyloxymethyl)isoxazole-3-carboxamide]: the pest or weed control at 500 ppm in assay [4] was no less than 90%. Moreover, the pest or weed control at 0.1 % strength in assay [6] and in assay [2] was no less than 80% each time.

With `CSc1ccc(COCc2cc(C(=O)NCC3CCOCC3)no2)cc1` [(104), N-(tetrahydropyran-4-ylmethyl)-5-(4-methylthiobenzyloxymethyl)isoxazole-3-carboxamide], the pest or weed control at 500 ppm in assay [4] is no less than 90%. Moreover, the pest or weed control at 0.1 % strength in assay [6] and in assay [2] was no less than 80% in each case.

Regarding `O=C(NCC1CCOC1)c1cc(COCc2cccc(-c3ccccc3)c2)on1` (stereo not drawn) [(113), N1-(tetrahydrofuran-3-ylmethyl)-5-(3-phenylbenzyloxymethyl)isoxazole-3-carboxamide], the pest or weed control at 2 % strength in assay [1] and in assay [3] was no less than 80% in each case. In addition, the pest or weed control at 0.1 % strength in assay [2] is no less than 80%.

`O=C(NCC1CCOC1)c1cc(COCC2COc3ccccc3O2)on1` (stereo not drawn) [(120), N-(tetrahydrofuran-3-ylmethyl)-5-(1,4-benzodioxan-2-ylmethoxymethyl)isoxazole-3-carboxamide]: the pest or weed control at 0.1 % strength in assay [6] and in assay [2] was no less than 80% each time. The pest or weed control at 2 % strength in assay [3] was no less than 80%.

`O=C(NCC1CCOC1)c1cc(COCCC2CCCC2)on1` (stereo not drawn) [(132), N-(tetrahydrofuran-3-ylmethyl)-5-(2-cyclopentylethyl)oxymethylisoxazole-3-carboxamide]: the pest or weed control at 500 ppm in assay [5] is no less than 90%. Further, the pest or weed control at 0.1 % strength in assay [6] and in assay [2] was no less than 80% throughout. Further, in assay [3], the pest or weed control at 2 % strength was no less than 80%.

As to `O=C(NCC1CCOC1)c1cc(Cc2ccc3ccccc3c2)on1` (stereo not drawn) [(159), N-(tetrahydrofuran-3-ylmethyl)-5-(naphthalen-2-ylmethyl)isoxazole-3-carboxamide], the pest or weed control at 0.1 % strength in assay [2] was no less than 80%. In addition, in assay [3], the pest or weed control at 2 % strength was no less than 80%.

Regarding `O=C(NCC1CCOC1)c1cc(Cc2cccc3ccccc23)on1` (stereo not drawn) [(160), N-(tetrahydrofuran-3-ylmethyl)-5-(naphthalen-1-ylmethyl)isoxazole-3-carboxamide], in assay [2], the pest or weed control at 0.1 % strength is no less than 80%. Further, the pest or weed control at 2 % strength in assay [3] was no less than 80%.

On to `Cc1c(C(=O)NCC2CCOC2)noc1COCc1ccccc1` (stereo not drawn) [(169), N-(tetrahydrofuran-3-ylmethyl)-(5-benzyloxymethyl-4-methyl) isoxazole-3-carboxamide], for which the pest or weed control at 0.1 % strength in assay [6] and in assay [2] was no less than 80% throughout. In addition, the pest or weed control at 2 % strength in assay [3] is no less than 80%.

On to `O=C(NCC1CCOC1)c1cc(COc2ccccc2Cl)on1` (stereo not drawn) [(176), N-(tetrahydrofuran-3-ylmethyl)-5-(2-chlorophenoxymethyl)isoxazole-3-carboxamide], for which the pest or weed control at 500 ppm in assay [5] is no less than 90%. Further, the pest or weed control at 0.1 % strength in assay [6] and in assay [2] was no less than 80% each time. Besides, the pest or weed control at 2 % strength in assay [3] is no less than 80%.

Regarding `Cc1c(C(=O)NCC2CCOC2)noc1COCc1ccc2ccccc2c1` (stereo not drawn) [(213), N-(tetrahydrofuran-3-ylmethyl)-4-methyl-5-(2-naphthylmethoxymethyl)isoxazole-3-carboxamide], the pest or weed control at 0.1 % strength in assay [6] and in assay [2] was no less than 80% in each case. Moreover, in assay [3], the pest or weed control at 2 % strength is no less than 80%.

Take `O=C(NCC1CCOCC1)c1cc(CCCc2ccccc2)on1` [(235), N-(tetrahydropyran-4-ylmethyl)-5-(3-phenylpropyl)isoxazole-3-carboxamide]: the pest or weed control at 0.1 % strength in assay [6] and in assay [2] was no less than 80% each time. In assay [3], the pest or weed control at 2 % strength is no less than 80%.

As to `O=C(NCC1CCOC1)c1cc(COC/C=C/c2ccccc2)on1` (stereo not drawn) [(242), N-(tetrahydrofuran-3-ylmethyl)-5-(3-phenyl-(E)-2-propenyloxymethyl)isoxazole-3-carboxamide], in assay [2], the pest or weed control at 0.1 % strength was no less than 80%. Further, in assay [3], the pest or weed control at 2 % strength is no less than 80%.

The compound `O=C(NCC1CCOC1)c1cc(COCc2ccccc2F)on1` (stereo not drawn) [(264), N-(tetrahydrofuran-3-ylmethyl)-5-(2-fluorobenzyloxymethyl)isoxazole-3-carboxamide] had a pest or weed control at 500 ppm in assay [5] of no less than 90%. Besides, the pest or weed control at 0.1 % strength in assay [6] and in assay [2] was no less than 80% each time. For the same compound, the pest or weed control at 2 % strength in assay [3] was no less than 80%.

On to `Cc1c(C(=O)NCC2CCOC2)noc1Cc1cccc(F)c1` (stereo not drawn) [(294), N-(tetrahydrofuran-3-ylmethyl)-4-methyl-5-(3-fluorobezyl)isoxazole-3-carboxamide], for which the pest or weed control at 500 ppm in assay [5] and in assay [4] was no less than 90% throughout. Moreover, the pest or weed control at 0.1 % strength in assay [6] and in assay [2] was no less than 80% throughout.

On to `O=C(NCC1CCOC1)c1cc(Cc2cccc(OC(F)(F)F)c2)on1` (stereo not drawn) [(313), N-(tetrahydrofuran-3-ylmethyl)-5-(3-trifluoromethoxybenzyl) isoxazole-3-carboxamide], for which the pest or weed control at 500 ppm in assay [5] and in assay [4] was no less than 90% throughout. Moreover, the pest or weed control at 0.1 % strength in assay [6] and in assay [2] was no less than 80% each time.

Values taken from patent US20150344466A1 (SUMITOMO CHEMICAL COMPANY, LIMITED, priority 2013, published 2015).
